Data on one molecule can be found in patent publication US20050228180A1, “Alpha, omega-dicarboximide derivatives as useful uro-selective a1a adrenoceptor blockers” (priority 2002, published 2005).

Where a name gives a salt, the structure may show the parent alone.

The target of one assay is T1, α1D adrenoceptor (aorta) (Rattus norvegicus, UniProt P23944).
T1 construct: Isolated tissues were mounted in organ bath containing Krebs Henseleit buffer; from tissue; host or cells: isolated rat aorta
T1 sequence (P23944 1-561): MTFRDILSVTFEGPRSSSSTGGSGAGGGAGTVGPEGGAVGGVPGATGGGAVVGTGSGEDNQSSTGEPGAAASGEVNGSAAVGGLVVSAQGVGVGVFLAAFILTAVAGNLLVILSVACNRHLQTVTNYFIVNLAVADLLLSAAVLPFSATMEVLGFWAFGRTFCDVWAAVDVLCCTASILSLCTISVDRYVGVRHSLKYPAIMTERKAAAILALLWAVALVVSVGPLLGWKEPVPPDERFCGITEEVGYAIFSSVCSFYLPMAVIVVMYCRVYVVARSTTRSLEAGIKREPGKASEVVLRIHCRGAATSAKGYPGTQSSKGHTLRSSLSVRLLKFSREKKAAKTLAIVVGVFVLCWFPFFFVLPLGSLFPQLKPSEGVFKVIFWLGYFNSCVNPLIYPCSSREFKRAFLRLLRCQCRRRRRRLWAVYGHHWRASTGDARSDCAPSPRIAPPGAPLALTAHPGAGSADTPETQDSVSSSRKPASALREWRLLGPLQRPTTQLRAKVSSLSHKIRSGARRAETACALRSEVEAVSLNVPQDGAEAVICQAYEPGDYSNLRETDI
Nature of the assay: In vitro functional assay, isolated aorta, norepinephrine contraction. Type of assay: cell-based. The settings on record: read-out: α Adrenoceptor Subtype (pKB) α1D (converted). The essentials: (§1)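 Rat aorta, spleen and prostate strips from urethane-anaesthetised male Wistar rats in Krebs-Henseleit at 37 °C (95% O2/5% CO2), 2 g or 1 g resting tension, 2 h equilibration. Norepinephrine (aorta) or phenylephrine (spleen, prostate) contraction curves run without and with compound at […]; antagonist affinity given as pKB.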

For assay [1], the target named is T2, α1A adrenoceptor (prostate) (Rattus norvegicus, UniProt P43140).
T2 construct: from tissue; host or cells: isolated prostate tissue
T2 sequence (P43140 1-466): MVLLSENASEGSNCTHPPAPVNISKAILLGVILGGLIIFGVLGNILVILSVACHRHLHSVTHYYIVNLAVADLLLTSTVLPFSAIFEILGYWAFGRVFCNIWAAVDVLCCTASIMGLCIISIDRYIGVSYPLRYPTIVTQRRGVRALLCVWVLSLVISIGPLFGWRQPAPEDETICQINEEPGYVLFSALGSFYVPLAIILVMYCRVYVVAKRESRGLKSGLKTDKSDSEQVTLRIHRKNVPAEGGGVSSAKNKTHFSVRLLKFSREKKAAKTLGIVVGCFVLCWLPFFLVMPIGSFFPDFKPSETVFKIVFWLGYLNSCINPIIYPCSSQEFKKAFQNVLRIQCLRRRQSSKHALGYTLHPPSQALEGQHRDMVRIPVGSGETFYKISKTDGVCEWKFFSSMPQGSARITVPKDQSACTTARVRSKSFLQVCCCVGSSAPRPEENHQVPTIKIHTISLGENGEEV
Nature of the assay: In vitro functional assay, isolated prostate, phenylepinephrine contraction. Type of assay: cell-based. The essentials:
as §1

The target in another assay is T3, α1A adrenoceptor (Rattus norvegicus, UniProt P43140).
T3 construct: from tissue; host or cells: rat submaxillary gland membranes
T3 sequence (P43140 1-466): T2 sequence (P43140 1-466)
Description: Radioligand binding, [3H] prazosin displacement, rat submaxillary membranes. An outline of the steps:
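Displacement of [3H]prazosin measured by filtration and counting, with Ki from IC50 via Cheng–Prusoff and nonspecific binding set by 300 nM prazosin. Native rat submaxillary (α1A) or liver (α1B) membranes, 150-250 μg protein, 1 h at 24-25° C in Tris/EDTA pH 7.4.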

As a reminder, the Ki is the dissociation constant of the complex between target and ligand, obtained from inhibition or displacement. For `CC(C)Oc1ccccc1N1CCN(CCCN2C(=O)C3CC(O)C(O)CC3C2=O)CC1` (stereo not drawn) [Compound No. 23, 2-[3-{4-(2-Isopropoxyphenyl)piperazin-1-yl}propyl]-5,6-dihydroxy-3a,4,5,6,7,7a, hexahydro-1H-isoindole-1,3(2H)-dione-hydrochloride], the Kb at α1D adrenoceptor (aorta) is 8.32 nM. In assay [1] (functional, from pKB), the “Selectivity α1B/α1A” value is recorded as 5 and the “Selectivity α1D/α1A” value turned out to be 5.6. The Kb in assay [1] (rat prostate, phenylepinephrine, read-out: α Adrenoceptor Subtype (pKB) α1A (converted)) was 1.48 nM. At α1A adrenoceptor ([3H] prazosin displacement, rat submaxillary membranes, read-out: Affinity (Ki) α1A (Rat Submaxillary)), the inhibition constant (Ki) was 0.98 nM. Moreover, the α1B/α1A on α1A adrenoceptor (ratio of binding affinities, rat liver / rat submaxillary) came out at 130.
